Measured values taken from the supplement of paper PMC4862054.

Tests used:
Conditions in all cases: incubation time: 72 h
[1] = system: CAL-85-1; assay: normalised viability (% of control), CellTiter-Blue; higher = more viable cells (about 100 = DMSO control)
Procedure, shortened: (§1)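 Each entry is normalised viability at a single listed concentration within a series. It comes from breast cancer cell lines incubated 72 h with compound in 384-well plates, then measured with CellTiter-Blue fluorescence at 560/590 nm. Every plate was normalised between vehicle (100) and a positive kill control (0).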

[2] = system: Hs578T; assay: as above
Procedure, shortened: as §1

[3] = system: DU-4475; assay: as above
Procedure, shortened: as §1

[4] = system: HCC1937; assay: as above
Procedure, shortened: as §1

[5] = system: CAL-51; assay: as above
Procedure, shortened: as §1

[6] = system: MDA-MB-468; assay: as above
Procedure, shortened: as §1

[7] = system: MDA-MB-453; assay: as above
Procedure, shortened: as §1

[8] = system: BT-474; assay: as above
Procedure, shortened: as §1

[9] = system: HCC1143; assay: as above
Procedure, shortened: as §1

[10] = system: MDA-MB-231; assay: as above
Procedure, shortened: as §1

[11] = system: BT-549; assay: as above
Procedure, shortened: as §1

[12] = system: HCC1599; assay: as above
Procedure, shortened: as §1

[13] = system: SK-BR-3; assay: as above
Procedure, shortened: as §1

[14] = system: MDA-MB-436; assay: as above
Procedure, shortened: as §1

[15] = system: HDQ-P1; assay: as above
Procedure, shortened: as §1

[16] = system: MFM-223; assay: as above
Procedure, shortened: as §1

[17] = system: Hs578T; assay: drug sensitivity score (DSS), CellTox Green (DSS (AUC-based score)); higher = stronger drug effect (viability inhibition or cytotoxicity); extreme values may be limits of the assay
Procedure, shortened: (§2)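 Normalisation on every plate relied on 0.1 % DMSO and a positive kill control. The plates, 384-well format, held compound at 5 concentrations 10-fold apart across a compound-specific 10,000-fold range, and breast cancer cell lines in 20 µl suspension were incubated on them for 72 h before CellTox Green and then CellTiter-Glo readings. The drug sensitivity score derives from the area under the fitted dose-response curve.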

[18] = system: HCC1937; assay: as above
Procedure, shortened: as §2

[19] = system: MDA-MB-231; assay: as above
Procedure, shortened: as §2

COc1cccc2cc(-c3nc([C@H]4CC[C@H](C(=O)O)CC4)n4ncnc(N)c34)[nH]c12 [OSI-027]
normalised viability [%]
Conditions	3 nM	10 nM	30 nM	100 nM	1000 nM	10000 nM
[1]	95.4	–	83.2	100	–	–
[2]	–	99.4	–	–	59.1	23.6
[3]	96.6	–	92.5	82.5	–	–
[4]	–	71.7	–	–	59.8	33.9
[5]	97.3	–	93.8	84.6	–	–
[6]	–	87.8	–	–	66.4	22
[7]	79	–	88.2	71.6	–	–
[8]	–	106	–	–	54.2	25.9
[9]	–	101	–	–	72.9	35
[10]	–	87.4	–	–	69.4	25.9
[11]	–	98.9	–	–	76	16.1
[12]	–	106	–	–	72.4	47
[13]	–	93.7	–	–	19	13.1
[14]	–	76.6	–	–	56.4	31.6
[15]	78.3	–	80.4	76.8	–	–
[16]	–	101	–	–	34.9	16

Conditions	drug sensitivity score
[17]	0
[18]	0
[19]	0

OC[C@H]1O[C@@H](n2cnc3c2N=CNC[C@H]3O)C[C@@H]1O [Pentostatin]
normalised viability [%]
Conditions	3 nM	10 nM	30 nM	100 nM	1000 nM	10000 nM
[1]	106	–	96.2	104	–	–
[2]	–	111	–	–	101	105
[3]	93.4	–	92.7	95	–	–
[4]	–	80.3	–	–	91.8	84.2
[5]	90.1	–	85.4	84.2	–	–
[6]	–	115	–	–	99.4	104
[7]	105	–	97.7	94.8	–	–
[8]	–	116	–	–	119	111
[9]	–	114	–	–	103	102
[10]	–	98.5	–	–	102	108
[11]	–	100	–	–	98.1	85.3
[12]	–	88.3	–	–	92.3	93.4
[13]	–	108	–	–	104	116
[14]	–	93.4	–	–	88.4	89.5
[15]	118	–	99	100	–	–
[16]	–	93.5	–	–	93	98.1

Conditions	drug sensitivity score
[17]	0
[18]	0
[19]	0

C=CC[C@@H]1/C=C(\C)C[C@H](C)C[C@H](OC)[C@H]2O[C@@](O)(C(=O)C(=O)N3CCCC[C@H]3C(=O)O[C@H](/C(C)=C/[C@@H]3CC[C@@H](O)[C@H](OC)C3)[C@H](C)[C@@H](O)CC1=O)[C@H](C)C[C@@H]2OC [Tacrolimus]
normalised viability [%]
Conditions	3 nM	10 nM	30 nM	100 nM	1000 nM	10000 nM
[1]	104	–	92.1	98.5	–	–
[2]	–	104	–	–	103	87.8
[3]	99.8	–	90.9	99.5	–	–
[4]	–	114	–	–	63.1	92.5
[5]	108	–	103	97.7	–	–
[6]	–	106	–	–	118	125
[7]	112	–	96.8	103	–	–
[8]	–	125	–	–	108	114
[9]	–	102	–	–	118	102
[10]	–	109	–	–	105	113
[11]	–	89.5	–	–	103	89.8
[12]	–	109	–	–	101	95.5
[13]	–	93.5	–	–	105	108
[14]	–	116	–	–	104	108
[15]	116	–	120	133	–	–
[16]	–	112	–	–	109	87.6

Conditions	drug sensitivity score
[17]	0
[18]	0
[19]	2.92

C=CCNC1=C2C[C@@H](C)C[C@H](OC)[C@H](O)[C@@H](C)/C=C(\C)[C@H](OC(N)=O)[C@@H](OC)/C=C\C=C(/C)C(=O)NC(=CC1=O)C2=O [Tanespimycin]
normalised viability [%]
Conditions	3 nM	10 nM	30 nM	100 nM	1000 nM	10000 nM
[1]	91.5	–	86.5	82.4	–	–
[2]	–	77.1	–	–	35.8	24.9
[3]	104	–	83.3	2.97	–	–
[4]	–	140	–	–	25.8	27.1
[5]	118	–	108	81.9	–	–
[6]	–	113	–	–	65.5	81.3
[7]	121	–	11.4	7.8	–	–
[8]	–	104	–	–	28.4	23.9
[9]	–	64.6	–	–	30.2	29.3
[10]	–	92.5	–	–	49.4	28.1
[11]	–	81.5	–	–	31	20.4
[12]	–	123	–	–	42.7	31.3
[13]	–	73.6	–	–	17.4	13
[14]	–	88.8	–	–	24.9	17.5
[15]	92.6	–	85.9	58.6	–	–
[16]	–	73.6	–	–	23.9	17.6

Conditions	drug sensitivity score
[17]	1.53
[18]	0
[19]	25.3

CO[C@H]1C[C@@H]2CC[C@@H](C)[C@@](O)(O2)C(=O)C(=O)N2CCCC[C@H]2C(=O)O[C@H]([C@H](C)C[C@@H]2CC[C@@H](OC(=O)C(C)(CO)CO)[C@H](OC)C2)CC(=O)[C@H](C)/C=C(\C)[C@@H](O)[C@@H](OC)C(=O)[C@H](C)C[C@H](C)/C=C/C=C/C=C/1C [Temsirolimus]
normalised viability [%]
Conditions	0.3 nM	1 nM	3 nM	10 nM	100 nM	1000 nM
[1]	69.3	–	58.9	60.7	–	–
[2]	–	70.4	–	–	55.1	57.6
[3]	95.3	–	66.6	60.2	–	–
[4]	–	59.5	–	–	68.7	54.7
[5]	89.4	–	55.5	37.5	–	–
[6]	–	74.6	–	–	68.5	62.4
[7]	73.5	–	26.1	27.1	–	–
[8]	–	80	–	–	58.6	66.2
[9]	–	75.7	–	–	66.5	61
[10]	–	73.4	–	–	75.1	78.4
[11]	–	56.8	–	–	62.9	53.4
[12]	–	103	–	–	78.7	86.8
[13]	–	76.1	–	–	54	49.7
[14]	–	81.8	–	–	80.6	69.5
[15]	106	–	78.4	82.5	–	–
[16]	–	58.1	–	–	50.5	41

Conditions	drug sensitivity score
[17]	22.6
[18]	0
[19]	0

C[C@]1(c2nc3c(C(N)=O)cccc3[nH]2)CCCN1 [Veliparib]
normalised viability [%]
Conditions	3 nM	10 nM	30 nM	100 nM	1000 nM	10000 nM
[1]	87.9	–	84.9	84.7	–	–
[2]	–	101	–	–	99.9	100
[3]	78.6	–	78.3	83.4	–	–
[4]	–	72.2	–	–	70	61.7
[5]	114	–	105	106	–	–
[6]	–	113	–	–	105	98.9
[7]	109	–	98.9	94.4	–	–
[8]	–	101	–	–	103	104
[9]	–	66.6	–	–	76.4	75.3
[10]	–	80.8	–	–	90.3	94.8
[11]	–	95.3	–	–	112	81.7
[12]	–	100	–	–	98.3	100
[13]	–	93.8	–	–	93.6	84.6
[14]	–	83.3	–	–	89.1	84.6
[15]	85.6	–	93.3	95.9	–	–
[16]	–	88.1	–	–	90.3	103

Conditions	drug sensitivity score
[17]	0
[18]	0
[19]	0

CC[C@]1(O)C[C@@H]2CN(CCc3c([nH]c4ccccc34)[C@@](C(=O)OC)(c3cc4c(cc3OC)N(C)[C@H]3[C@@](O)(C(=O)OC)[C@H](OC(C)=O)[C@]5(CC)C=CCN6CC[C@]43[C@@H]65)C2)C1 [Vinblastine]
normalised viability [%]
Conditions	0.3 nM	1 nM	3 nM	10 nM	100 nM	1000 nM
[1]	89.9	–	94.9	48.3	–	–
[2]	–	70.4	–	–	14.8	13.2
[3]	105	–	96.5	82.9	–	–
[4]	–	46	–	–	18.7	15.6
[5]	108	–	106	96.4	–	–
[6]	–	83.8	–	–	36.6	41.8
[7]	115	–	99.8	36.8	–	–
[8]	–	51.8	–	–	54.2	52.7
[9]	–	77.3	–	–	42.7	29.5
[10]	–	70	–	–	13.4	12
[11]	–	90.7	–	–	19.4	17
[12]	–	106	–	–	56.9	45.5
[13]	–	27.6	–	–	16.5	16.4
[14]	–	93	–	–	28.8	37
[15]	92.6	–	87.3	47.5	–	–
[16]	–	96.7	–	–	43.9	24.9

Conditions	drug sensitivity score
[17]	21.4
[18]	0
[19]	17

CS(=O)(=O)c1ccc(C(=O)Nc2ccc(Cl)c(-c3ccccn3)c2)c(Cl)c1 [Vismodegib]
normalised viability [%]
Conditions	3 nM	10 nM	30 nM	100 nM	1000 nM	10000 nM
[1]	97.9	–	93.7	109	–	–
[2]	–	106	–	–	108	93.3
[3]	107	–	110	110	–	–
[4]	–	57.2	–	–	91.4	83.9
[5]	114	–	104	106	–	–
[6]	–	104	–	–	103	88.7
[7]	106	–	113	104	–	–
[8]	–	102	–	–	118	77.5
[9]	–	93.1	–	–	93.6	92.9
[10]	–	115	–	–	97.7	92
[11]	–	102	–	–	112	79.2
[12]	–	112	–	–	97.7	84.1
[13]	–	107	–	–	105	95.2
[14]	–	90.9	–	–	23.6	76
[15]	100	–	96.5	88.8	–	–
[16]	–	92.4	–	–	108	99.6

Conditions	drug sensitivity score
[17]	1.09
[18]	0
[19]	0
